Read-outs that look alike come from different tables or passages of the source.
Tests used:
[1] = biological target: T1, MCR-1 (Homo sapiens, UniProt Q01726); test: Melanocortin receptor binding assay, competition with 125I-HP 467, HEK 293 cells expressing hMCR-1; settings: for effectiveness as MC receptor ligand: binding to MC receptors, Table 1; for IC50: read-out: MC-1 IC50; for % Disp. of 125I-HP 467 (first of duplicate) / % Disp. of 125I-HP 467 (second of duplicate): 10 μM isoquinoline compound; for % Disp. of 125I-HP 467 (first of duplicate): HEK 293 cells expressing MCR-1, duplicate 1; for % Disp. of 125I-HP 467 (second of duplicate): HEK 293 cells expressing MCR-1, duplicate 2; for specificity for at least one MC receptor over another MC receptor: MCR-1 versus MCR-4 binding; for % Disp. MC-1 10 μM: displacement of 125I-HP 467 at 10 μM isoquinoline compound
T1 construct: expressed in transfected cells; host or cells: HEK 293
T1 sequence (Q01726 whole entry): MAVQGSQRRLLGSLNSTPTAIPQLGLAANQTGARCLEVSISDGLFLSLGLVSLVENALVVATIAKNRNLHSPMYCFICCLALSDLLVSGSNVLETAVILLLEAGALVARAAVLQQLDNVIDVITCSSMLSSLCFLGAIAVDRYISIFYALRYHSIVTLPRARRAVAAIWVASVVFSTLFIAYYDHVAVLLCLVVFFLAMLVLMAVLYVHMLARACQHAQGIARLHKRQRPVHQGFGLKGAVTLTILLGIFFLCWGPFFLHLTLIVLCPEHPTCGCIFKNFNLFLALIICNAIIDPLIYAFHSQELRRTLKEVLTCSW
In short: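 Test compounds compete on intact HEK 293 cells carrying hMCR-1 (2×10^4 per tube) or hMCR-4 (4×10^3 per tube), suspended in PBS, 10% calf serum, 1 mM CaCl2.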

[2] = test system: IL-10; test: Increasing levels of IL-10 in mice (plasma ELISA); format: in vivo; settings: for % IL-10 Induction, IP 30: 30 μg per mouse; for % IL-10 Induction, IP 30 / % IL-10 Induction, IP 300 / % IL-10 Induction, Oral 300 / % IL-10 Induction, Oral 600 / % IL-10 Induction, IP 100: mouse plasma, 90 or 105 minutes; for % IL-10 Induction, IP 300 / % IL-10 Induction, Oral 300: 300 μg per mouse; for % IL-10 Induction, Oral 600: 600 μg per mouse; for % IL-10 Induction, IP 100: 100 μg per mouse
Protocol: Isoquinoline compounds were administered intraperitoneally to mice in doses of 30, 100 or 300 μg/mouse or orally in doses of 300 or 600 μg/mouse. Levels of IL-10 were measured 90 or 105 minutes after administration as indicated. Samples were collected and diluted, when appropriate, as described in Example VI. A 100 μl sample of plasma was assayed by ELISA for IL-10. Briefly, ELISA plates were coated with rat anti-mouse IL-10 monoclonal antibody (Pharmingen; San Diego Calif.). Samples or known concentrations of IL-10 were added to the coated plates and incubated for 2 hr at 37° C. Plates were washed and incubated with biotinylated rat anti-mouse IL-10 (R&D Systems; Minneapolis Minn.) for 1 hr at 37° C. Plates were washed and incubated with streptavidin-HRP 30 min at 37° C., and HRP activity was detected with hydrogen peroxide and TMB using standard immunoassay procedures.

[3] = biological target: T2, MCR-3 (Homo sapiens, UniProt P41968); test: Melanocortin receptor binding assay, competition with 125I-HP 467, HEK 293 cells expressing hMCR-3; settings: binding to MCR-3, HEK 293 cells; read-out: MC-3 IC50
T2 construct: expressed in transfected cells; host or cells: HEK 293
T2 sequence (P41968 whole entry): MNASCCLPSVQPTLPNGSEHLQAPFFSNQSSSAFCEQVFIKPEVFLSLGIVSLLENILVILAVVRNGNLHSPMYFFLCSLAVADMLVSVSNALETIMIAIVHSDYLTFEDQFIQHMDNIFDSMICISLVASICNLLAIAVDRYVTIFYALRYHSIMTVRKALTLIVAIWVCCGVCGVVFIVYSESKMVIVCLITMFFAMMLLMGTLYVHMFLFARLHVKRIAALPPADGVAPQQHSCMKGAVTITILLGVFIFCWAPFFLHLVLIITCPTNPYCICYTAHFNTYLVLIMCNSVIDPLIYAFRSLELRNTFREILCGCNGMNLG
Text: (§1) All cell culture media and reagents were obtained from GibcoBRL (Gaithersburg Md.), except for COSMIC CALF SERUM (HyClone; Logan Utah). HEK-293 cell lines were transfected with the human MC receptors hMCR-1, hMCR-3, and hMCR-4 (Gantz et al., Biochem. Biophys. Res. Comm. 200:1214-1220 (1994); Gantz et al., J. Biol. Chem. 268:8246-8250 (1993); Gantz et al. J. Biol. Chem. 268:15174-15179 (1993); Haskell-Leuvano et al., Biochem. Biophys. Res. Comm. 204:1137-1142 (1994); each of which is incorporated herein by reference). Vectors for construction of an hMCR-5 expressing cell line were obtained, and a line of HEK 293 cells expressing hMCR-5 was constructed (Gantz, supra, 1994). hMCR-5 has been described previously (Franberg et al., Biochem. Biophys. Res. Commun. 236:489-492 (1997); Chowdhary et al., Cytogenet. Cell Genet. 68:1-2 (1995); Chowdhary et al., Cytogenet. Cell Genet. 68:79-81 (1995), each of which is incorporated herein by reference). HEK 293 cells were maintained in DMEM, 25 mM HEPES, 2 mM glutamine, non-essential amino acids, vitamins, sodium pyruvate, 10% COSMIC CALF SERUM, 100 units/ml penicillin, 100 μg/ml streptomycin and 0.2 mg/ml G418 to maintain selection.
(§2) Before assaying, cells were washed once with phosphate buffered saline (“PBS”; without Ca^2+ and Mg^2+), and stripped from the flasks using 0.25% trypsin and 0.5 mM EDTA. Cells were suspended in PBS, 10% COSMIC CALF SERUM and 1 mM CaCl2. Cell suspensions were prepared at a density of 2×10^4 cells/ml for HEK 293 cells expressing hMCR-3, hMCR-4 or hMCR-5, and 1×10^5 cells/ml for HEK 293 cells expressing hMCR-1. Suspensions were placed in a water bath and allowed to warm to 37° C. for 1 hr.
(§3) Binding assays were performed in a total volume of 250 μl for HEK 293 cells. Control and test compounds were dissolved in distilled water. ^125I-HP 467 (50,000 dpm) (2000 Ci/mmol) (custom labeled by Amersham; Arlington Heights Ill.) was prepared in 50 mM Tris, pH 7.4, 2 mg/ml BSA, 10 mM CaCl2, 5 mM MgCl2, 2 mM EDTA and added to each tube. To each tube was added 4×10^3 HEK 293 cells expressing hMCR-3, hMCR-4 or hMCR-5, or 2×10^4 cells expressing hMCR-1. Assays were incubated for 2.5 hr at 37° C.
(§4) GF/B filter plates were prepared by soaking for at least one hour in 5 mg/ml BSA and 10 mM CaCl2. Assays were filtered using a Brandel 96-well cell harvester (Brandel Inc.; Gaithersburg, Md.). The filters were washed four times with cold 50 mM Tris, pH 7.4, the filter plates were dehydrated for 2 hr and 35 μl of MICROSCINT was added to each well. Filter plates were counted using a Packard Topcount (Packard Instrument Co.) and data analyzed using GraphPad PRISM v2.0 (GraphPad Software Inc.; San Diego Calif.) and Microsoft EXCEL v5.0a (Microsoft Corp.; Redmond Wash.).
(§5) To assay isoquinoline compounds, binding assays were performed in duplicate in a 96 well format. HP 467 was prepared in 50 mM Tris, pH 7.4, and ^125I-HP 467 was diluted to give 100,000 dpm per 50 μl. An isoquinoline compound, synthesized as described in Example I, was added to the well in 25 μl aliquots. A 25 μl aliquot of ^125I-HP 467 was added to each well. A 0.2 ml aliquot of suspended cells was added to each well to give the cell numbers indicate above, and the cells were incubated at 37° C. for 2.5 hr. Cells were harvested on GF/B filter plates as described above and counted.
(§6) Some of the isoquinoline compounds were further tested for binding to MCR-3 and MCR-5.

[4] = biological target: T3, MCR-5 (Homo sapiens, UniProt P33032); test: Melanocortin receptor binding assay, competition with 125I-HP 467, HEK 293 cells expressing hMCR-5; settings: binding to MCR-5, HEK 293 cells; read-out: MC-5 IC50
T3 construct: expressed in transfected cells; host or cells: HEK 293
T3 sequence (P33032 whole entry): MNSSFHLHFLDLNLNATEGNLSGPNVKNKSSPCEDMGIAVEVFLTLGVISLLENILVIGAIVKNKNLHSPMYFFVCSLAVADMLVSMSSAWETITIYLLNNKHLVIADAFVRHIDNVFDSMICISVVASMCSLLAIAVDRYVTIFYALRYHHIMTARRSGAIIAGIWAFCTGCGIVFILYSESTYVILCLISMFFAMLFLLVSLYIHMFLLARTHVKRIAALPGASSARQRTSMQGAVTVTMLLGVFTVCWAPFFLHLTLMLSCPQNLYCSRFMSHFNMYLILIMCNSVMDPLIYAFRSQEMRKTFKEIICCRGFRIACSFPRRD
Text: as §1, §2, §3, §4, §5, §6

[5] = competition with 125I-HP 467, HEK 293 cells expressing MCR-1

IC50 [1, 5] [µM]	% Disp. of 125I-HP 467 (first of duplicate) [1] [%]	% Disp. of 125I-HP 467 (second of duplicate) [1] [%]	specificity for at least one MC receptor over another MC receptor [1]	IC50 [3] [µM]	IC50 [4] [µM]	IC50 ([1]; TRG 2408 and TRG 2409 libraries, inhibition of 125I-HP 467 binding) [µM]	IC50 ([1]; TRG 2406 and TRG 2407 libraries, inhibition of binding of 125I-HP 467) [µM]	IC50 ([1]; TRG 2405 section, inhibition of binding of 125I-HP 467, HEK 293 cells expressing MCR-1) [µM]	% Disp. MC-1 10 μM ([1]; first of duplicate) [%]	% Disp. MC-1 10 μM ([1]; second of duplicate) [%]	SMILES	effectiveness as MC receptor ligand [1]	% IL-10 Induction, IP 30 [2] [%]	% IL-10 Induction, IP 300 [2] [%]	% IL-10 Induction, Oral 300 [2] [%]	% IL-10 Induction, Oral 600 [2] [%]	increase of IL-10 ([2]; plasma levels in mice)	% IL-10 Induction, IP 100 [2] [%]	increase of IL-10 ([2]; administered orally)
0.1	–	–	–	–	–	–	–	–	–	–	CCCCNc1ccc(C2C(CNC3CCCCC3)c3ccccc3CN2CCCCC(CN)NC)cc1 (stereo not shown) [TRG 2409-14]	particularly effective MC receptor ligands	−27 ± 8	150 ± 50	79 ± 29	193 ± 50	–	–	–
–	95.1	95.5	about 10 fold	6.49	1.86	–	–	–	–	–	CNC(CN)CCCCN1Cc2ccccc2C(CNC2CCCCC2)C1c1ccc(Oc2ccccc2)cc1 (stereo not shown) [TRG 2405-252]	particularly effective MC receptor ligands	2 ± 13	307 ± 43	–	69 ± 19	particularly effective at increasing IL-10	–	–
–	66.1	66.8	–	> 10	> 10	–	–	–	–	–	CNC(CN)CCCCN1Cc2ccccc2C(CNC2CCCCC2)C1c1ccc2cccc(O)c2n1 (stereo not shown) [TRG 2405-262]	–	–	191 ± 53	–	–	–	–	–
–	86	83.4	–	0.55	0.41	–	–	–	–	–	CNC(CN)CCCCN1Cc2ccccc2C(CNC2CCCCC2)C1c1ccc(Br)cc1 (stereo not shown) [TRG 2405-242]	–	–	–	–	–	–	−9 ± 7	–
–	–	–	about 10 fold	40.4	9.35	1.17	–	–	–	–	CCNc1ccc(C2C(CNC3CCCCC3)c3ccccc3CN2CCCCC(CN)NC)cc1 (stereo not shown) [TRG 2408-30]	particularly effective MC receptor ligands	−20 ± 14	24 ± 12	33 ± 18	136 ± 41	particularly effective at increasing IL-10	–	particularly effective at increasing IL-10
–	26.5	20.7	–	> 10	> 10	–	–	–	–	–	CNC(CN)CCCCN1Cc2ccccc2C(CNC2CCCCC2)C1c1ccc(O)cc1 (stereo not shown) [TRG 2405-246]	–	–	–	–	30 ± 5	–	–	–
0.22	–	–	–	–	–	–	–	–	–	–	CCCCNc1ccc(C2C(CNCc3ccccc3O)c3ccccc3CN2CCCCC(CN)NC)cc1 (stereo not shown) [TRG 2409-2]	particularly effective MC receptor ligands	−30 ± 11	157 ± 57	39 ± 15	82 ± 19	–	–	–
–	79.4	81	–	2.24	0.8	–	–	–	–	–	CNC(CN)CCCCN1Cc2ccccc2C(CNC2CCCCC2)C1c1ccc(Cl)cc1Cl (stereo not shown) [TRG 2405-190]	particularly effective MC receptor ligands	25 ± 30	109 ± 31	–	–	particularly effective at increasing IL-10	13 ± 14	–
–	–	–	–	0.28	0.24	–	0.91	–	–	–	CNC(CN)CCCCN1Cc2ccccc2C(CN)C1c1ccc(Cl)cc1Cl (stereo not shown) [TRG 2407-39]	–	34 ± 13	366 ± 12	–	–	–	–	–
–	–	–	–	23.7	2.83	–	–	17	25.9	21.3	CNC(CN)CN1Cc2ccccc2C(CNC2CCCCC2)C1c1ccc(O)cc1 (stereo not shown) [TRG 2405-156]	–	17 ± 23	43 ± 34	–	–	–	−5 ± 11	–

SMILES	IC50 [1, 5] [µM]	% Disp. of 125I-HP 467 (first of duplicate) [1] [%]	% Disp. of 125I-HP 467 (second of duplicate) [1] [%]	specificity for at least one MC receptor over another MC receptor [1]	IC50 [3] [µM]	IC50 [4] [µM]	IC50 ([1]; TRG 2408 and TRG 2409 libraries, inhibition of 125I-HP 467 binding) [µM]	IC50 ([1]; TRG 2406 and TRG 2407 libraries, inhibition of binding of 125I-HP 467) [µM]	IC50 ([1]; TRG 2405 section, inhibition of binding of 125I-HP 467, HEK 293 cells expressing MCR-1) [µM]	% Disp. MC-1 10 μM ([1]; first of duplicate) [%]	% Disp. MC-1 10 μM ([1]; second of duplicate) [%]	effectiveness as MC receptor ligand [1]	% IL-10 Induction, IP 30 [2] [%]	% IL-10 Induction, IP 300 [2] [%]	% IL-10 Induction, Oral 300 [2] [%]	% IL-10 Induction, Oral 600 [2] [%]	increase of IL-10 ([2]; plasma levels in mice)	% IL-10 Induction, IP 100 [2] [%]	increase of IL-10 ([2]; administered orally)
CNC(CN)CCCCN1Cc2ccccc2C(CNC2CCCCC2)C1c1ccc(N(C)C)cc1 (stereo not shown) [TRG 2405-235]	–	64.2	26.3	–	22.3	2.82	–	–	–	–	–	–	−11 ± 13	113 ± 15	–	–	–	45 ± 18	–
CNC(CN)CCCCN1Cc2ccccc2C(CNC2CCCCC2)C1c1ccc(C(F)(F)F)cc1 (stereo not shown) [TRG 2405-238]	–	76.8	72.8	–	> 10	0.43	–	–	–	–	–	–	−17 ± 7	118 ± 25	–	65 ± 15	–	151 ± 26	–
CNC(CN)CCCCN1Cc2ccccc2C(CNC2CCCCC2)C1c1ccc(-c2ccccc2)cc1 (stereo not shown) [TRG 2405-241]	–	89.5	88.8	about 10 fold	7.45	1.04	–	–	–	–	–	particularly effective MC receptor ligands	117 ± 21	406 ± 46	9 ± 23	77 ± 37	particularly effective at increasing IL-10	310 ± 35	–

Reference: patent publication US6608082B1, “Treatment of erectile dysfunction using isoquinoline compound melanocortin receptor ligands” (Lion Bioscience AG, priority 1998, dated 2003)
